Assay results reported in US20240059700A1, “NOVEL DIACYLGLYCERIDE O-ACYLTRANSFERASE 2 INHIBITORS” (Merck Sharp & Dohme LLC, priority 2020, published 2024).

Each compound was assayed against human DGAT2 (hDGAT2) (Homo sapiens (Human), UniProt Q96PD7) (assay: DGAT2 Enzymatic Activity Assay). Conditions: membrane prep of Sf-9 insect cells expressing hDGAT2; 13C18-triolein product by LC/MS/MS.
Format: biochemical
Method in brief: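 Membranes from Sf-9 cells infected with untagged hDGAT2 baculovirus (8 ng/μL) incubated at rt in 100 mM Tris pH 7.0, 20 mM MgCl2, 5% ethanol with 25 μM diolein and 5 μM 13C oleoyl-CoA. 13C18-triolein product quantified by LC/MS/MS against 13C21-triolein internal standard; IC50 by 4-parameter fit.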

Sequence of human DGAT2 (hDGAT2) (Q96PD7 whole entry): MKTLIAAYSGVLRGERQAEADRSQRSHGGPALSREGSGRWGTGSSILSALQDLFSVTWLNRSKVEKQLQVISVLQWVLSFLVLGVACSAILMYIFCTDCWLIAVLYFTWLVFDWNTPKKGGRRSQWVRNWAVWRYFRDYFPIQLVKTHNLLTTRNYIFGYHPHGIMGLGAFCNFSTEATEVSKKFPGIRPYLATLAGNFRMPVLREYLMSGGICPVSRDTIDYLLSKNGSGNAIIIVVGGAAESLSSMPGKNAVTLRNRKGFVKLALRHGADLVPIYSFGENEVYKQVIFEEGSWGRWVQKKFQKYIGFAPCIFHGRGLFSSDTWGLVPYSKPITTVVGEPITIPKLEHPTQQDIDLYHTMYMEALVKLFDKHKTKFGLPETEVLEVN

| IC50 [nM] | Compound |
| --- | --- |
| 1930 | CC(C)n1nc(-c2cccc(C3(C#N)CC3)c2)c2ncc(C(=O)NC3(C)CS(=O)(=O)C3)cc21 [Example 110, 3-(3-(1-cyanocyclopropyl)phenyl)-1-isopropyl-N-(3-methyl-1,1-dioxidothietan-3-yl)-1H-pyrazolo[4,3-b]pyridine-6-carboxamide] |
| 22 | CC(C)(O)Cn1nc(-c2cccc(OC(F)F)c2)c2ncc(C(=O)NC3(C)CS(=O)(=O)C3)cc21 [Example 111, 3-(3-(difluoromethoxy)phenyl)-1-(2-hydroxy-2-methylpropyl)-N-(3-methyl-1,1-dioxidothietan-3-yl)-1H-pyrazolo[4,3-b]pyridine-6-carboxamide] |
| 6 | CC(C)(O)Cn1nc(-c2cccc(C3CC3)c2)c2ncc(C(=O)NC3(C)CS(=O)(=O)C3)cc21 [Example 112, 3-(3-cyclopropylphenyl)-1-(2-hydroxy-2-methylpropyl)-N-(3-methyl-1,1-dioxidothietan-3-yl)-1H-pyrazolo[4,3-b]pyridine-6-carboxamide] |
| 1 | CC(C)n1nc(-c2cc(OC(F)F)ccc2F)c2ncc(C(=O)NC3(C)CS(=O)(=O)C3)cc21 [Example 113, 3-(5-(difluoromethoxy)-2-fluorophenyl)-1-isopropyl-N-(3-methyl-1,1-dioxidothietan-3-yl)-1H-pyrazolo[4,3-b]pyridine-6-carboxamide] |
| 20 | CC(C)n1nc(-c2cncc(OC(F)(F)F)c2)c2ncc(C(=O)NC3(C)CS(=O)(=O)C3)cc21 [Example 114, 1-isopropyl-N-(3-methyl-1,1-dioxidothietan-3-yl)-3-(5-(trifluoromethoxy)pyridin-3-yl)-1H-pyrazolo[4,3-b]pyridine-6-carboxamide] |
| 3.3 | CCOc1ccc(F)c(-c2nn(C(C)C)c3cc(C(=O)NC4(C)CS(=O)(=O)C4)cnc23)c1 [Example 115, 3-(5-ethoxy-2-fluorophenyl)-1-isopropyl-N-(3-methyl-1,1-dioxidothietan-3-yl)-1H-pyrazolo[4,3-b]pyridine-6-carboxamide] |
| 11.5 | CC[C@H](C)n1nc(-c2cc(OC(F)F)ncc2F)c2ncc(C(=O)NC3(C)CCS(=O)(=O)CC3)cc21 [Example 116, (S)-1-(sec-butyl)-3-(2-(difluoromethoxy)-5-fluoropyridin-4-yl)-N-(4-methyl-1,1-dioxidotetrahydro-2H-thiopyran-4-yl)-1H-pyrazolo[4,3-b]pyridine-6-carboxamide] |
| 9.6 | CC(C)n1nc(-c2cc(C3CC3)ccc2F)c2ncc(C(=O)NC3(C)CS(=O)(=O)C3)cc21 [Example 117, 3-(5-cyclopropyl-2-fluorophenyl)-1-isopropyl-N-(3-methyl-1,1-dioxidothietan-3-yl)-1H-pyrazolo[4,3-b]pyridine-6-carboxamide] |
| 20 | CC(C)n1nc(-c2cc(OC(F)(F)F)ccc2F)c2ncc(C(=O)NC3(C)CCS(=O)(=O)CC3)cc21 [Example 118, 3-(2-fluoro-5-(trifluoromethoxy)phenyl)-1-isopropyl-N-(4-methyl-1,1-dioxidotetrahydro-2H-thiopyran-4-yl)-1H-pyrazolo[4,3-b]pyridine-6-carboxamide] |
| 97 | CC(C)n1nc(-c2cccc(OC(F)(F)F)c2)c2ncc(C(=O)NC3(C)CS(=O)(=O)C3)cc21 [Example 119, 1-isopropyl-N-(3-methyl-1,1-dioxidothietan-3-yl)-3-(3-(trifluoromethoxy)phenyl)-1H-pyrazolo[4,3-b]pyridine-6-carboxamide] |
| 7.2 | CC(C)n1nc(-c2cc(OC(F)F)ccc2Cl)c2ncc(C(=O)NC3(C)CS(=O)(=O)C3)cc21 [Example 120, 3-(2-chloro-5-(difluoromethoxy)phenyl)-1-isopropyl-N-(3-methyl-1,1-dioxidothietan-3-yl)-1H-pyrazolo[4,3-b]pyridine-6-carboxamide] |
| 8.3 | CC(C)n1nc(-c2cc(OCC(F)F)ncc2F)c2ncc(C(=O)NC3(C)CS(=O)(=O)C3)cc21 [Example 121, 3-(2-(2,2-difluoroethoxy)-5-fluoropyridin-4-yl)-1-isopropyl-N-(3-methyl-1,1-dioxidothietan-3-yl)-1H-pyrazolo[4,3-b]pyridine-6-carboxamide] |
| 7.7 | CC(C)n1nc(-c2cc(OCC(F)(F)F)ncc2F)c2ncc(C(=O)NC3(C)CS(=O)(=O)C3)cc21 [Example 122, 3-(5-fluoro-2-(2,2,2-trifluoroethoxy)pyridin-4-yl)-1-isopropyl-N-(3-methyl-1,1-dioxidothietan-3-yl)-1H-pyrazolo[4,3-b]pyridine-6-carboxamide] |
| 487 | Cc1nc2c(-c3nn(C(C)C)c4cc(C(=O)NC5(C)CS(=O)(=O)C5)cnc34)cccc2o1 [Example 123, 1-isopropyl-N-(3-methyl-1,1-dioxidothietan-3-yl)-3-(2-methylbenzo[d]oxazol-4-yl)-1H-pyrazolo[4,3-b]pyridine-6-carboxamide] |
| 620 | CC(=O)Nc1ccc(-c2nn(C(C)C)c3cc(C(=O)NC4(C)CS(=O)(=O)C4)cnc23)cc1O [Example 124, 3-(4-acetamido-3-hydroxyphenyl)-1-isopropyl-N-(3-methyl-1,1-dioxidothietan-3-yl)-1H-pyrazolo[4,3-b]pyridine-6-carboxamide] |
| > 1000 | CC(C)n1nc(-c2ccnc(N(C)C)c2)c2ncc(C(=O)NC3(C)CS(=O)(=O)C3)cc21 [Example 125, 3-(2-(dimethylamino)pyridin-4-yl)-1-isopropyl-N-(3-methyl-1,1-dioxidothietan-3-yl)-1H-pyrazolo[4,3-b]pyridine-6-carboxamide] |

| Compound | IC50 [nM] |
| --- | --- |
| CC(C)n1nc(-c2cc(OC3CCC3)ccc2F)c2ncc(C(=O)NC3(C)CS(=O)(=O)C3)cc21 [Example 109, 3-(5-cyclobutoxy-2-fluorophenyl)-1-isopropyl-N-(3-methyl-1,1-dioxidothietan-3-yl)-1H-pyrazolo[4,3-b]pyridine-6-carboxamide] | 11 |
